From paper PMC9578396, “Intrinsic Antibacterial Activity of Xeruborbactam In Vitro: Assessing Spectrum and Mode of Action” (Antimicrobial Agents and Chemotherapy, 2022)
Where “and” joins values, the source holds several entries; their conditions need not be identical. Equal entries are not always repeated. Where two headings read alike, the source gives them in different places.

Key:
[1] = test system: A. baumannii strain ATCC 17978; experiment: Fluorescence microscopy, cellular morphology; assay type: cell-based, Acinetobacter baumannii; details: xeruborbactam, meropenem 1× and 2× MIC; aztreonam 2× MIC; amdinocillin 2 μg/mL
Description: Single colonies of K. pneumoniae strain KPM1026a, A. baumannii strain ATCC 17978, and P. aeruginosa strain PAM1154 were picked from LB agar plates, inoculated in cation-adjusted Mueller-Hinton broth (CA-MHB), and incubated overnight at 30°C with rolling. Overnight cultures were diluted into fresh CA-MHB and incubated at 30°C, with rolling, until they reached an OD600 of ≈0.12 to 0.15 (equivalent to ~2 × 10^8 CFU/mL). Samples were then treated with compounds and incubated at 30°C, with rolling. After 1 or 2 h of treatment, cells were collected and stained with a dye mix containing FM4-64 (1 μg/mL), DAPI (4′,6-diamidino-2-phenylindole) (2 μg/mL), and SYTOX green (0.5 μM) (Molecular Probes, Invitrogen, or Thermo Fisher Scientific). Cells were transferred onto an agarose pad containing 1.2% agarose and 20% LB medium for microscopy. Microscopy was performed as previously described ([34]).

[2] = molecular target: PBP3 (Acinetobacter baumannii, UniProt A0ABX6CK25); experiment: Gel-based Bocillin FL competition PBP binding assay
PBP3, sequence (A0ABX6CK25 entry or part of it): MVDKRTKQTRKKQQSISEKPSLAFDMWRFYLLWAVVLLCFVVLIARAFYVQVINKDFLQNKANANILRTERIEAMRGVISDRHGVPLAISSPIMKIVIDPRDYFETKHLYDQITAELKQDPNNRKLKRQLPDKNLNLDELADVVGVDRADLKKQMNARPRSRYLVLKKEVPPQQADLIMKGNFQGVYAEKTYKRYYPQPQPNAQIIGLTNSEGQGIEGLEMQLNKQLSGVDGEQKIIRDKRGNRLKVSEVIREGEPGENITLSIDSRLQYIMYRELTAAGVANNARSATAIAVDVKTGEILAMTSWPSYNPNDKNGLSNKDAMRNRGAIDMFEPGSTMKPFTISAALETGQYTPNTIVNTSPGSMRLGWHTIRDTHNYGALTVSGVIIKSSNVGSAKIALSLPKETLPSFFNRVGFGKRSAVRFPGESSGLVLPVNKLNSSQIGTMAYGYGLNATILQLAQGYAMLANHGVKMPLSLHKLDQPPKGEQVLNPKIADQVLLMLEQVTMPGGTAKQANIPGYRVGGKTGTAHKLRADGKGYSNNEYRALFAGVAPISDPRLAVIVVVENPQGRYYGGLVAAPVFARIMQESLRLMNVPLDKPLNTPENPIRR
Description: (§1) Ten milliliters of overnight bacterial culture was inoculated in 1 L of LB medium and grown to an OD600 of 0.7 to 0.9. The cell pellet was washed once with 50 mL of solution containing 100 mM Na-phosphate at pH 7.0 and 100 mM NaCl and resuspended in 10 mL of the same buffer with one tablet of EDTA-free mini-protease inhibitor and 10 mg of lysozyme. Cell suspensions were incubated for 45 min at 37°C, and then 200 μL of DNase I was added along with MgSO4 (to a final concentration of 10 mM), followed by three cycles of freeze-thawing (10 min and 20 min, respectively). Four cycles of sonication at maximum power were performed next, each cycle lasting for 30 s with 1 min on ice between cycles. The cell suspension was centrifuged at 12,000 × g for 10 min at 4°C. The supernatant was collected and centrifuged at 100,000 × g for 45 min at 4°C. The pellet was washed three times with 10 mL of 100 mM Na-phosphate, pH 7.0, by resuspension and subsequent centrifugation at 100,000 × g for 10 min at 4°C. The pellet was finally resuspended in 1.5 mL of 100 mM Na-phosphate, pH 7.0, and passed several times through a Dounce homogenizer (tight pestle). Membrane preparations were aliquoted and kept at −80°C.
(§2) Five microliters of total bacterial membrane preparation was mixed with 5 μL of a test compound at a desired concentration in 100 mM Na-phosphate buffer, pH 7.0. Incubation of bacterial membrane preparations with control beta-lactams was performed for 10 min at 30°C; xeruborbactam was incubated with membrane preparations for 1 h at 30°C. Five microliters of 150 μM Bocillin FL fluorescent probe (Thermo Fisher Scientific) was added, and the reaction mixture was incubated for an additional 10 min at 30°C in the case of beta-lactams or for 20 min on ice (0°C) in the case of xeruborbactam. We believe that the 0°C temperature is required to prevent displacement of xeruborbactam from its complex by the Bocillin probe. At the end of the incubation step, 15 μL of 2× SDS sample loading buffer was added, and the reaction mixture was incubated for 5 min at 95°C. Twenty-five microliters of the reaction mixture was then loaded on an 8% SDS Tris-glycine gel (Thermo Fisher Scientific). At the end of the run, the gel was briefly rinsed with water and fixed in 10% acetic acid, 40% methanol for 20 min. After an additional wash in water for 30 min, the gel was scanned on a Typhoon Trio+ Imager using a blue laser filter (excitation, 488 nm, and emission, 520 nm). Densitometry of the gel images was performed using ImageQuant software (Molecular Dynamics). IC50 values were calculated with Prism software (GraphPad).

[3] = molecular target: PBP1a (Klebsiella pneumoniae, UniProt A0A0H3GZF1); experiment: as above
PBP1a, sequence (A0A0H3GZF1 entry or part of it): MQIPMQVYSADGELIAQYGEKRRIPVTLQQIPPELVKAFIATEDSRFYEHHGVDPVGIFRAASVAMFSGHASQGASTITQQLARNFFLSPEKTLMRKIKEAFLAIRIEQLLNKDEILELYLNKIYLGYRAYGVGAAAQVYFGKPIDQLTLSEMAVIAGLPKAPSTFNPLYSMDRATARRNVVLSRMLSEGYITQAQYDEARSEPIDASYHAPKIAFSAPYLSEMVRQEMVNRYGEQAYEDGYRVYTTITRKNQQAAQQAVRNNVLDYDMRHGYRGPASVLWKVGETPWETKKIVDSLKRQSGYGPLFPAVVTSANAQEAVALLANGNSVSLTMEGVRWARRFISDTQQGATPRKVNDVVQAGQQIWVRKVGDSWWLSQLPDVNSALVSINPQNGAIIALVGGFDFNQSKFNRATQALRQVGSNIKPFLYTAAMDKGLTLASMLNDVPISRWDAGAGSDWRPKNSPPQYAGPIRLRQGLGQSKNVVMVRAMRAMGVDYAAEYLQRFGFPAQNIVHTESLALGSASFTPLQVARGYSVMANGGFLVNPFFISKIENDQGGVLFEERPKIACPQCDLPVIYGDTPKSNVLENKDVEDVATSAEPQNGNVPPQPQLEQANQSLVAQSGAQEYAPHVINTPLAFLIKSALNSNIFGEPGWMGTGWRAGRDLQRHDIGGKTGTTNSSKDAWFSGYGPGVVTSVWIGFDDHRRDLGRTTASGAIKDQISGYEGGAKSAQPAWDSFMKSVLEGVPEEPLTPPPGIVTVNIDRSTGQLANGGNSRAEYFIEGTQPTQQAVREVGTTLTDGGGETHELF
Description: as §1, §2

[4] = molecular target: T1, PBP1b (Escherichia coli, UniProt P02919); experiment: as above
T1 construct: endogenous in cells; host or cells: Escherichia coli ECM5497 (MG1655), total membrane preparation
T1 sequence (P02919 whole entry): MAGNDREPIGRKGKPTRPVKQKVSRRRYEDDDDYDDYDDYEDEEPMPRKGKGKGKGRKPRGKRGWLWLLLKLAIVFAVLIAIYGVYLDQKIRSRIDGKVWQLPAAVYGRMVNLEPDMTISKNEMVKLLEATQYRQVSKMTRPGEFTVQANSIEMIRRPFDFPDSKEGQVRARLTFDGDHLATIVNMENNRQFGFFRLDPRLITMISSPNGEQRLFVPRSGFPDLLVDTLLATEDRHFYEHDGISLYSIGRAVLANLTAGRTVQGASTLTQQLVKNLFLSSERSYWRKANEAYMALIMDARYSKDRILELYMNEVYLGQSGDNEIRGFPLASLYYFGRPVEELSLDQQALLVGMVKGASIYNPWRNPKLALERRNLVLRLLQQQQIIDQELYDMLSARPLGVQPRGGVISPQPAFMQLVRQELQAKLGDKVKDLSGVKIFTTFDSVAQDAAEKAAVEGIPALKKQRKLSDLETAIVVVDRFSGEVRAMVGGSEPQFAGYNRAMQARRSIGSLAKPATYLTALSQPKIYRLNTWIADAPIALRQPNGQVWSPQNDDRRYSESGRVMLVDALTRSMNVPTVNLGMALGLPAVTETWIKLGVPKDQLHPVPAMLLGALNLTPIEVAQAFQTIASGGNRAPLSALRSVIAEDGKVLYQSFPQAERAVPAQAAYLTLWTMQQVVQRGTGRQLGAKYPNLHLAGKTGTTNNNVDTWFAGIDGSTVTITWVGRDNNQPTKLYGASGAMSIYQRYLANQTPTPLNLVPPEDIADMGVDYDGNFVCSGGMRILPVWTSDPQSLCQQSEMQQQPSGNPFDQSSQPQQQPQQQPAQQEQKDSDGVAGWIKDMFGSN
Description: as §1, §2

[5] = test system: Pseudomonas aeruginosa; experiment: Broth microdilution MIC (CLSI), Pseudomonas aeruginosa; assay type: cell-based; details: for MIC50 / MIC90: 506 isolates
Summary of the method: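 Test organisms were KPC-producing clinical isolates (some enriched for porin mutations), matched isolates that lost KPC plasmids, and engineered porin/efflux mutant strains. Susceptibility was measured by broth microdilution following CLSI methods, using panels prepared in-house.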

[6] = Pseudomonas aeruginosa, strain PAM1032, nalB (MexAB-OprM overexpression)
[7] = Pseudomonas aeruginosa, strain PAM1033, nfxB (MexCD-OprJ overexpression)
[8] = Pseudomonas aeruginosa, strain PAM1034, nfxC (MexEF-OprN overexpression)
[9] = Pseudomonas aeruginosa, strain PAM1106, mexA::Tet
[10] = Pseudomonas aeruginosa, strain PAM1154, oprM::Hg

## C[C@@H](O)[C@H]1C(=O)N2C(C(=O)O)=C(S[C@@H]3CN[C@H](C(=O)N(C)C)C3)[C@H](C)[C@H]12 [Meropenem]
[1]
  cellular morphology: swelling and rounding but not elongation
[2]; read-out: Relative binding IC50, PBP3; A. baumannii ACM1320 membranes; Bocillin FL step 0°C for xeruborbactam, 30°C for beta-lactams
  IC50: 0.19 µM
[3]; read-out: Relative binding IC50, PBP1a; K. pneumoniae KPM1001 membranes; Bocillin FL step 0°C for xeruborbactam, 30°C for beta-lactams
  IC50: 6.6 µM
[4]
  IC50: 21.1 µM
[5]; PAM1154 (oprM::Hg), xeruborbactam 0 µg/ml
  MIC: 0.5 µg/mL
[5]; Pseudomonas aeruginosa
  MIC: 0.25 µg/mL
[5]; Pseudomonas aeruginosa, PAO1
  MIC: 0.06 µg/mL and 0.16 µM
[5]; [6]
  MIC: 1 µg/mL
[5]; [7]
  MIC: 0.25 µg/mL
[5]; [8]
  MIC: 0.5 µg/mL
[5]; [9]
  MIC: 0.06 µg/mL
[5]; [10]
  MIC: 0.06 µg/mL

## O=C(O)c1c(F)ccc2c1OB(O)[C@@H]1C[C@H]21 [Xeruborbactam]
[1]
  cellular morphology: cell shape deformation, from coccobacilli to a football shape
[2]; A. baumannii ACM1320 membranes; Bocillin FL step 0°C for xeruborbactam, 30°C for beta-lactams; read-out: Relative binding IC50, PBP3
  IC50: 135 ± 40 µM
[3]; K. pneumoniae KPM1001 membranes; Bocillin FL step 0°C for xeruborbactam, 30°C for beta-lactams; read-out: Relative binding IC50, PBP1a
  IC50: 41 ± 6 µM
[4]; E. coli ECM5497 membranes, Bocillin FL step 0°C for xeruborbactam, 30°C for beta-lactams, read-out: Relative binding IC50, PBP1b
  IC50: 56 ± 18 µM
[5]; 506 P. aeruginosa clinical isolates
  isolates with MICs of ≥64 μg/mL: 94%
[5]; Pseudomonas aeruginosa
  MIC50: >64 µg/mL
  MIC90: >64 µg/mL
[5]; Pseudomonas aeruginosa, read-out: MIC50
  MIC50: > 64 µg/mL
[5]; Pseudomonas aeruginosa, read-out: MIC90
  MIC90: > 64 µg/mL
[5]; Pseudomonas aeruginosa, PAM1154 (oprM::Hg), xeruborbactam 0 µg/ml
  MIC: 16 µg/mL
[5]; Pseudomonas aeruginosa, PAO1, Pseudomonas aeruginosa PAM3034 (PAO1), read-out: MIC
  MIC: 16 µg/mL and 72 µM
[5]; Pseudomonas aeruginosa, after inactivation of MexAB-OprM, read-out: MIC
  MIC: 16 µg/mL
[5]; Pseudomonas aeruginosa, before inactivation of MexAB-OprM (wild type), read-out: MIC
  MIC: 256 µg/mL
[5]; Pseudomonas aeruginosa, strain 1089003, alone, read-out: MIC
  MIC: 16 µg/mL
[5]; Pseudomonas aeruginosa, strain 1097436, alone, read-out: MIC
  MIC: 8 µg/mL
[5]; Pseudomonas aeruginosa, strain 1098084, alone, read-out: MIC
  MIC: 16 µg/mL
[5]; Pseudomonas aeruginosa, strain 1098916, alone, read-out: MIC
  MIC: 32 µg/mL
[5]; Pseudomonas aeruginosa, strain 1100407, alone, read-out: MIC
  MIC: 32 µg/mL
[5]; Pseudomonas aeruginosa, strain 1104100, alone, read-out: MIC
  MIC: 16 µg/mL
[5]; Pseudomonas aeruginosa, strain 1104168, alone, read-out: MIC
  MIC: 32 µg/mL
[5]; Pseudomonas aeruginosa, strain 1104284, alone, read-out: MIC
  MIC: 8 µg/mL
[5]; Pseudomonas aeruginosa, strain 1106973, alone, read-out: MIC
  MIC: 16 µg/mL
[5]; Pseudomonas aeruginosa, strain 1108885, alone, read-out: MIC
  MIC: 16 µg/mL
[5]; Pseudomonas aeruginosa, strain 1109744, alone, read-out: MIC
  MIC: 16 µg/mL
[5]; Pseudomonas aeruginosa, strain 1113238, alone, read-out: MIC
  MIC: 8 µg/mL
[5]; Pseudomonas aeruginosa, strain 1113634, alone, read-out: MIC
  MIC: 8 µg/mL
[5]; Pseudomonas aeruginosa, strain 1114012, alone, read-out: MIC
  MIC: 8 µg/mL
[5]; Pseudomonas aeruginosa, strain 1116835, alone, read-out: MIC
  MIC: 8 µg/mL
[5]; Pseudomonas aeruginosa, strain 1116849, alone, read-out: MIC
  MIC: 16 µg/mL
[5]; Pseudomonas aeruginosa, strain 1118234, alone, read-out: MIC
  MIC: 16 µg/mL
[5]; Pseudomonas aeruginosa, strain 1119418, alone, read-out: MIC
  MIC: 8 µg/mL
[5]; Pseudomonas aeruginosa, strain 1124145, alone, read-out: MIC
  MIC: 16 µg/mL
[5]; Pseudomonas aeruginosa, strain 1125954, alone, read-out: MIC
  MIC: 32 µg/mL
[5]; Pseudomonas aeruginosa, strain 1125996, alone, read-out: MIC
  MIC: 32 µg/mL
[5]; Pseudomonas aeruginosa, strain 1126521, alone, read-out: MIC
  MIC: 8 µg/mL
[5]; Pseudomonas aeruginosa, strain 1126957, alone, read-out: MIC
  MIC: 8 µg/mL
[5]; Pseudomonas aeruginosa, strain 1126982, alone, read-out: MIC
  MIC: 32 µg/mL
[5]; Pseudomonas aeruginosa, strain 1128636, alone, read-out: MIC
  MIC: 32 µg/mL
[5]; Pseudomonas aeruginosa, strain 1128674, alone, read-out: MIC
  MIC: 16 µg/mL
[5]; Pseudomonas aeruginosa, strain 1130387, alone, read-out: MIC
  MIC: 16 µg/mL
[5]; Pseudomonas aeruginosa, strain 1130447, alone, read-out: MIC
  MIC: 16 µg/mL
[5]; Pseudomonas aeruginosa, strain 1130475, alone, read-out: MIC
  MIC: 16 µg/mL
[5]; Pseudomonas aeruginosa, strain 1131123, alone, read-out: MIC
  MIC: 8 µg/mL
[5]; Pseudomonas aeruginosa, strain PAM1020, wild type, read-out: MIC
  MIC: 256 µg/mL
[5]; [6]
  MIC: > 256 µg/mL
[5]; [7]
  MIC: 128 µg/mL
[5]; [8]
  MIC: 256 µg/mL
[5]; [9]
  MIC: 16 µg/mL
[5]; Pseudomonas aeruginosa, strain PAM1154 (Fig. 6), read-out: MIC
  MIC: 32 µg/mL
[5]; [10]
  MIC: 16 µg/mL
[5]; Pseudomonas aeruginosa, strain PAM1154, read-out: MIC
  MIC: 16 µg/mL
[5]; inactivation of MexAB-OprM
  fold reduction of MIC: 16 fold
[5]; mexCD-oprJ-overexpressing strain PAM1033
  fold MIC decrease: 2 fold
